Experiment [1] concerns the target T1, cynomolgus PD-L1 (Macaca fascicularis, UniProt G7PSE7).
T1 construct: with PD-1 (displaced in the assay)
In words: in vitro cynomolgus PD-L1/PD-1 interaction inhibition assay (S5 Fig). The format is binding.

The target in experiment [2] is T2, PD-L1 (Homo sapiens, UniProt Q9NZQ7).
T2 construct: gene CD274; with PD-1 (displaced in the assay); PD-L1 homodimer induced
As to the kind of experiment: plate-based (ELISA-type) PD-1/PD-L1 binding inhibition assay with recombinant proteins; also CD80/PD-L1 inhibition and PathHunter PD-L1 dimerization in U2OS cells.

T1 sequence (G7PSE7 19-238 limits assumed): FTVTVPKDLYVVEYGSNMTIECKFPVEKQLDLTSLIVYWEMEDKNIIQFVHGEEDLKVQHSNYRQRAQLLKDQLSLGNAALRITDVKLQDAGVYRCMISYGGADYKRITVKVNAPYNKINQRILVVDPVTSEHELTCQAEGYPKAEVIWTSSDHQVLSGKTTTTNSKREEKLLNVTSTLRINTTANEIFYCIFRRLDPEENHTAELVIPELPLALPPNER
T2 sequence (Q9NZQ7 19-290): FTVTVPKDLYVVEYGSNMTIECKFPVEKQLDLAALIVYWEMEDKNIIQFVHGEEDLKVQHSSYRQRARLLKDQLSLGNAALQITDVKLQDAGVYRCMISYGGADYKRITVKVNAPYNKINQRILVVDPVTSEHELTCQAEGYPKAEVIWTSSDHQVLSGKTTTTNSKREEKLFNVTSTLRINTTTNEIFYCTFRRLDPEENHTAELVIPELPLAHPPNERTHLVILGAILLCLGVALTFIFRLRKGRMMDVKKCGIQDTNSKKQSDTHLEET

As a reminder, the IC50 is the concentration at which inhibition is half-maximal. As to CCX559, the IC50 in experiment [1] was 0.21 nM; in experiment [2] it was 0.47 nM.
